Starred links: 1 amine or outer side, 2 acyl side, 3 side chain; linkers in the order of their positions; H or OH if unused. Non-standard residues stand in square brackets, D forms with d. Residues, ends and D or L forms follow the SMILES beside them. *: point of attachment. NH(4-phenylbutyl) = c1ccc(CCCCN*)cc1; X1 = C[C@H](N[*:1])C(=O)C(=O)[*:2]; NHPhenethyl = c1ccc(CCN*)cc1
Assays:
[1] = target: T1, endogenous YqgP (Bacillus subtilis, UniProt P54493); test: inhibition of endogenous YqgP in live B. subtilis (LacYTM2 substrate cleavage, western blot); assay type: cell-based, Bacillus subtilis 168; settings: for % substrate conversion: YqgP WT (BS87)
T1 construct: cleaved to about 75% conversion by the endogenous YqgP; endogenous in cells; host or cells: Bacillus subtilis 168 ydcA::neo, xkdE::substrate (BS87)
Experimental: The substrate MBP-FLAG-LacYTM2-Trx ([Strisovsky et al., 2009]) was expressed in wild-type E. coli NR698 with genetically permeabilized outer membrane ([Ruiz et al., 2005]) in the presence of increasing concentrations of inhibitors as described in STAR Methods. Substrate cleavage was measured in cell lysates by immunoblotting for FLAG and quantified using near-infrared fluorescence. The reported in vivo IC50 values are best-fit means with SD representative of 2–3 measurements. DMSO, dimethylsulfoxide vehicle control; KO, E. coli glpG::tet. […] The substrate AmyESP-MBP-FLAG-LacYTM2-Trx-HA was expressed in Bacillus subtilis 168 (ydcA::neo, xdkE::AmyESP-MBP-LacYTM2-Trx(erm, lin)) (BS87) in the presence of increasing concentrations of inhibitors as described in STAR Methods. Substrate cleavage was detected in cell lysates by immunoblotting for FLAG and detection by near-infrared fluorescence. […] This treatment was necessary because the specific cleavage product could not be resolved sufficiently well from the non-specific bands to be integrated separately. DMSO, dimethylsulfoxide vehicle control; YqgP KO, Bacillus subtilis 168 (ydcA::neo, yqgP::tet, xdkE::AmyESP-MBP-LacYTM2-Trx(erm, lin)) (BS88).
We then extended the range of organisms to Bacillus subtilis, a representative of Gram-positive bacteria, which have a thick cell wall and include major pathogens such as Staphylococcus, Listeria, Streptococcus, and others. Since the endogenous substrate of the B. subtilis rhomboid protease YqgP is unknown, and no robust and rescuable phenotypes have been reported for YqgP, we focused on inhibition of cleavage of a model substrate.
For measuring the inhibition of YqgP in vivo, the B. subtilis strains BS87 and its yqgP knock-out derivative BS88, generated in this work (see Constructs and Cloning section), were used as follows. The chimeric LacYTM2 substrate AmyEsp-MBP-FLAG-LacYTM2-Trx-HA (this work) was expressed under control of xylose promoter from the xdkE genomic locus. Fresh LB medium, supplemented with appropriate antibiotic, was inoculated with a few colonies of the B. subtilis strain grown overnight on selective LB agar plate and pre-culture was grown for 2 h at 37°C to OD600 = 1. Pre-culture was then diluted with fresh LB medium to the density of OD600 = 0.05. At this point, the expression of LacYTM2 was induced by adding 1% (w/v) D-(+)-xylose (Sigma), rhomboid inhibitors were added at a range of concentrations, and the cultures were further incubated for 2.5 h at 37°C (reaching OD600 ∼ 1). Steady-state conversion of the substrate was evaluated by western blotting with near-infrared fluorescence detection as described ([Ticha et al., 2017]), substracting the intensity of non-specific bands, closely co-migrating with the specific rhomboid-formed N-terminal cleavage product of the substrate.

[2] = target: T2, EcGlpG (Escherichia coli, UniProt P09391); test: activity-based probe competition assay, rhomboid panel; assay type: biochemical, E. coli; settings: 50 μM and 0.5 μM; outcompeted the ABP even at 500 nM
T2 construct: made in house; host or cells: E. coli C41(DE3)
Description: Any enzyme inhibitors to be used as specific tools for cell biology or as starting points for drug development must show sufficient level of selectivity toward their intended target. This is particularly important for compounds that react with the catalytic nucleophile common to many serine hydrolases. […] To map the selectivity of peptidyl ketoamides more objectively and widely, we employed activity-based probe (ABP) competition assays that enable a more general and substrate-independent measurement of inhibitory potency, because they rely solely on the competition between a fluorescently labeled activity-based probe and the tested inhibitor ([Nguyen et al., 2015], [Serim et al., 2012]). […]
(§1) Figure 5 Selectivity of Peptidyl Ketoamides (A) Selectivity of compounds 9, 10, and 11 for nine rhomboid proteases was profiled using activity-based probe competition assay at 50 μM and 0.5 μM concentration. […] (B) Selectivity of compounds 9, 10, and 11 against human serine hydrolases was analyzed using EnPlex as described ([Bachovchin et al., 2014]).
(§2) For inhibitor selectivity profiling against rhomboid proteases ([Wolf et al., 2015]), 400 ng of a purified protein preparation of E. coli GlpG was diluted in 30 μL of reaction buffer (20 mM HEPES, pH 7.4, with 0.05% (w/v) DDM). […] Gels were scanned on a Typhoon Trio+ and analyzed using ImageJ. […]

[3] = system: TmROM; test: as above; assay type: biochemical, Thermotoga maritima; settings: 50 μM
Description: Any enzyme inhibitors to be used as specific tools for cell biology or as starting points for drug development must show sufficient level of selectivity toward their intended target. This is particularly important for compounds that react with the catalytic nucleophile common to many serine hydrolases. Only limited tests of selectivity have been conducted for the currently used rhomboid inhibitors isocoumarins, β-lactams and β-lactones, at best interrogating them against trypsin or chymotrypsin ([Pierrat et al., 2011], [Vosyka et al., 2013]). […]
as §1
as §2, with “ImageJ. The intensity of each rhomboid protease band calculated by ImageJ was normalized against its corresponding DMSO-treated counterpart (100% activity) to indicate the residual activity left after inhibition.” for “ImageJ.”

T1 sequence (P54493 whole entry): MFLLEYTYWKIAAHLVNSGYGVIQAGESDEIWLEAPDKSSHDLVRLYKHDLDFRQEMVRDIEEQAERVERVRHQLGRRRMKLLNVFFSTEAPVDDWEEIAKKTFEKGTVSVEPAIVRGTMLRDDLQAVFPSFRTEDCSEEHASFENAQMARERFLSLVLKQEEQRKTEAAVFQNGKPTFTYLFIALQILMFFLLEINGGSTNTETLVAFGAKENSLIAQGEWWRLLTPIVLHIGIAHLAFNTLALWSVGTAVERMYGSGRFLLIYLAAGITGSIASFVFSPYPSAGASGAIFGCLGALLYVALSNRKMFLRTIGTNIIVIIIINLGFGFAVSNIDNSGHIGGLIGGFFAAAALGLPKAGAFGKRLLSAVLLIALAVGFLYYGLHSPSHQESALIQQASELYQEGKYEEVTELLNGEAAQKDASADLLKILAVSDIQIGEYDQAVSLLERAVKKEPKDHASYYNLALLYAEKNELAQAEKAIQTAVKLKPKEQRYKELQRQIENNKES
T2 sequence (P09391 whole entry): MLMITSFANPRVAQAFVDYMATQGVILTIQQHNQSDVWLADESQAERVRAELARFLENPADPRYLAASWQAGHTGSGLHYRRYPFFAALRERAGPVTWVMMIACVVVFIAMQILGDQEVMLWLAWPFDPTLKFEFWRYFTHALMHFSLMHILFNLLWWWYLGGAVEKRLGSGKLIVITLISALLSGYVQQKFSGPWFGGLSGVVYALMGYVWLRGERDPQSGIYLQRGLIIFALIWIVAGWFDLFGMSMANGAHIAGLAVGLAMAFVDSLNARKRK

Row | SMILES | IC50 [1] [nM] | % substrate conversion ([1]; 0.6 nM compound 11) [%] | % substrate conversion ([1]; 1.2 nM compound 11) [%] | % substrate conversion ([1]; 2.5 nM compound 11) [%] | % substrate conversion ([1]; 5 nM compound 11) [%] | % substrate conversion ([1]; 10 nM compound 11) [%] | % substrate conversion ([1]; 20 nM compound 11) [%] | % substrate conversion ([1]; 50 nM compound 11) [%] | inhibition of substrate cleavage ([1]; 50 nM in growth media) | competition with ABP labeling of EcGlpG [2] | inhibition of ABP labeling of TmROM [3]
1 | CC(=O)N[C@@H](CCCNC(=N)N)C(=O)N[C@H](C(=O)N[C@@H](CCCNC(=N)N)C(=O)N[C@@H](Cc1c[nH]cn1)C(=O)N[C@@H](C)C(=O)C(=O)NCCCCc1ccccc1)C(C)C [compound 11, Ac-RVRHA-CONH-phenylbutyl] (Ac-RVRH[X1]-{NH(4-phenylbutyl)}) | 5 to 10 | 73 | 67 | 54 | 52 | 7 | 4 | 0 | completely inhibited | potently competed | only partially inhibited
2 | CC(=O)N[C@@H](CCCNC(=N)N)C(=O)N[C@H](C(=O)N[C@@H](CCCNC(=N)N)C(=O)N[C@@H](Cc1c[nH]cn1)C(=O)N[C@@H](C)C(=O)C(=O)NCCc1ccccc1)C(C)C [compound 9, Ac-RVRHA-CONH-phenylethyl] (Ac-RVRH[X1]-NHPhenethyl) | – | – | – | – | – | – | – | – | – | potently competed | only partially inhibited
